Reference: paper PMC7894522, “Structure Based Design of Bicyclic Peptide Inhibitors of RbAp48” (Angewandte Chemie (International Ed. in English), 2020)
Read-outs that look alike come from different tables or passages of the source. Values belong to the compound of their own block, whether it stands above or below them. Starred links: 1 amine or outer side, 2 acyl side, 3 side chain; linkers in the order of their positions; H or OH if unused. Positions of bridges follow the written chain, without caps; N, C: chain ends. Residues, ends and D or L forms follow the SMILES beside them. *: point of attachment. TBMB = c1c(C[*:1])cc(C[*:3])cc1C[*:2]; pXylylene = c1cc(C[*:2])ccc1C[*:1]; X1 = [N-]=[N+]=NCCOCCOCCOCC(=O)*

Experiments:
[1] = target: T1, RbAp48 (Homo sapiens, UniProt Q09028); assay: Competitive fluorescence polarization (FP) assay using complex of peptide 1 and RbAp48; assay type: binding; parameters: Full length RbAp48 was cloned; His tag followed by 3C cleavage site (N, cleaved yes); made in house; host or cells: Sf9 insect cells
Outline: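 Sf9-expressed full-length RbAp48 (tag cleaved), 15 nM, displaced from 1 nM fluorescent peptide tracer in 20 mM Tris-HCl pH 7.5, 150 mM NaCl, 0.01% Tween-20. Read by FP (ex 485/em 535 nm) after 30 min at room temperature.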

[2] = target: T1, RbAp48; assay: Pull-down with peptides immobilized on DBCO beads from MDA-MB-231 nuclear lysate; assay type: binding; parameters: RbAp48 was pulled down from nuclear lysate of MDA‐MB‐231 cells; endogenous in cells; host or cells: MDA-MB-231 nuclear lysate; conditions: 60 µM probe immobilized on DBCO beads, 1.5 h at 4°C, immunoblot
Description: To evaluate whether peptide 33 interacts with RbAp48 in a more complex biological environment we modified the N‐terminus with a linker bearing a terminal azide (47, see Table 1, supplemental Figure 4). The peptides were immobilized on DBCO‐beads via copper‐free click chemistry and exposed to MDA‐MB‐231 nuclear lysate. As a negative control an azide modified scrambled peptide sequence (48) with affinity >10 μM was used.
Nuclear lysate of MDA-MB-231 cells was prepared using a Subcellular Protein Fractionation Kit (Thermo Scientific) according to the manufacturer’s instructions. DBCO agarose beads (100 µl) were washed with buffer A ( 50 mM Tris-HCl, 150 mM NaCl, 1 mM DTT, 1% (v/v) Triton X -100, pH 7.4, cOmplete™ EDTA-free Protease Inhibitor Cocktail ) three times. The beads were incubated overnight at 4°C in a solution containing either 47, 48 or no probe (500 µl containing 60 µM probe). After immobilization, the beads were washed again with buffer A three times followed by incubation with the nuclear lysate (500 µl) and incubated for 1.5 h at 4°C. After incubat ion beads were washe d with buffer B (50 mM Tris-HCl, 500 mM NaCl, 1 mM DTT, 1% (v/v) Triton X -100, pH 7.4, cOmplete™ EDTA - free Protease Inhibitor Cocktail ) three times. Protein was eluted by adding SDS sample buffer and loaded the mixture directly on SDS -page gel for analysis. […]

[3] = Peptide stability in MDA-MB-231 whole cell lysate; assay type: in vitro ADME; conditions: human, 37°C, HPLC, duplicate
Description: To investigate whether the cyclization strategy influences the stability of the peptides we incubated 3, 8 and 33 in MDA‐MB‐231 cell lysate. […]
(§1) Fluorescence polarization assay […]
Isothermal Titration Calorimetry […]
Peptide stability was tested in whole cell lysate prepared from MDA-MB-231 cells using the freeze-thaw method. Peptides were dissolved in lysate (normalized to 5mg/ml protein using PBS) at 600 µM and incubated at 37°C. Samples were taken at different time points and mixed with an equal amount of MeOH containing 0.05 mg/ml ethylparaben as an i nternal standard. The samples were mixed and kept on ice for 15 minutes before centrifugation at 14000 rpm at 4 °C for 10 min. The supernatant was carefully removed and analyzed by HPLC. Peptide peaks were integrated and surface areas compared […]
Measurements were performed in duplicate.

[4] = target: T1, RbAp48; assay: Isothermal titration calorimetry (direct and competitive); assay type: binding; parameters: Full length RbAp48 was cloned; His tag followed by 3C cleavage site (N, cleaved yes); made in house; host or cells: Sf9 insect cells
Description: The weak ligand interferes with binding of the strong ligand allowing the use of higher concentrations and therefore stronger signal. The actual affinity and thermodynamic parameters can then be calculated from the measured values.[ ^20 , ^21 ] The long linear peptide 2, monocyclic peptide 8, and bicyclic peptide 33 were analysed using this method and the results are reported in Table 2 (See Figure 4 A and Supplemental Figure 13–16). […] An effect which could not clearly be observed by the FP assay as it's lower limits were reached.
Protein expression and purification
RbAp48 was expressed and purified by the Dortmund Protein Facility. Full length RbAp48 was cloned into a pOPIN vector ligating it to an N-terminal His tag followed by a 3C cleavage site. The protein was expressed from Sf9 cells for 48 h. Cells were harvested and lysed and the protein was purified by loading onto a HisTrap FF crude 5 ml column followed by on-column cleavage using Precission protease. The cleaved protein was then further purified using a HiLoad 26/60 Superdex 200 column.
as §1
Isothermal Titration Calorimetry
Isothermal titration calorimetry measurements w ere performed using a Microcal ITC-200 device. The buffer for all measurements consisted of 20 mM Tris, 150 mM NaCl, pH 7.5 and all measurements were performed at 25°C in duplicate except for 8. RbAp48 was dialyzed overnight using a 10 kDa MWCO Slide-A-lizer dialysis membrane and peptide samples were dissolved in the dialysis buffer. Direct measurements of 40 were perfomed by titrating the peptide ( 800 µM) into the cell containing RbAp48 (40 µM) using 2 µl injection after an initial injection of 0.5 µl. […]
by competitive ITC where the protein is premixed with a weak ligand ( 40).[1] Competitive measurements were performed by titrating 2, 8 or 33 (300 µM) into the cell containing RbAp48 (30 µM) and 40 (416 µM). Other conditions were the same as for the direct measurement described above.
Ki was calculated according using the following formula: […]

[5] = Table 1, competitive FP, tracer peptide 1 1 nM, RbAp48 15 nM, 20 mM Tris-HCl, 150 mM NaCl, 0.01% Tween-20, pH 7.5, 30 min room temperature, lower limit set by 15 nM protein, read-out: IC50
[6] = competitive ITC with weak ligand 40

T1 sequence (Q09028 whole entry): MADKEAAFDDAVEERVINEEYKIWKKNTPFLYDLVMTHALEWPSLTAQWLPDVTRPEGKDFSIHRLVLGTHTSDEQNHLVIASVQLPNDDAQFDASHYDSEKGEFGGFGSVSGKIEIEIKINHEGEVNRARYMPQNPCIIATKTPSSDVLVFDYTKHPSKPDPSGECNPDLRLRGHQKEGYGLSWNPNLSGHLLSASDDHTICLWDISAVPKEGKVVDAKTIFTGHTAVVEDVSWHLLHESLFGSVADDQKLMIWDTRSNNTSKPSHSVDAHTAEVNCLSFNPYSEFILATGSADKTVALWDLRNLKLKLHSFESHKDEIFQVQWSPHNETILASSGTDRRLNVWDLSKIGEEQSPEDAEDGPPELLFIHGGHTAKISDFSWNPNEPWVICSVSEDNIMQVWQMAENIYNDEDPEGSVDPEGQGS

Structure (SMILES): CC(=O)N[C@H]1CSCc2ccc(cc2)CSC[C@@H](C(=O)N[C@@H](C)C(N)=O)NC(=O)[C@@H]2CCCN2C(=O)[C@H](CCCCN)NC(=O)[C@H](Cc2ccc(O)cc2)NC(=O)[C@@H]2CCCN2C(=O)[C@H](CCCNC(=N)N)NC(=O)[C@H](CCCNC(=N)N)NC(=O)[C@H](C)NC(=O)[C@H](C)NC(=O)[C@H](CCCNC(=N)N)NC(=O)[C@H](CCCCN)NC(=O)[C@H]([C@@H](C)O)NC1=O [Peptide 8] (Ac-CTKRAARRPYKPCA-NH2; linker 1-13 via pXylylene)
- IC50 [1, 5]: 15.1 ± 5.4 nM
- half-life at 600 µM ([3]; MDA-MB-231 whole cell lysate (freeze-thaw), 5 mg/ml protein in PBS, peptide 600 µM, read-out: t 1/2 (half-life)): 11.9 min
- remaining at 5 min, 600 µM ([3]; T 5 min, MDA-MB-231 whole cell lysate 5 mg/ml protein, 600 µM, read-out: % left): 67.8%
- remaining at 0.25 h, 600 µM ([3]; T 15 min, MDA-MB-231 whole cell lysate 5 mg/ml protein, 600 µM, read-out: % left): 41%
- remaining at 1 h, 600 µM ([3]; T 60 min, MDA-MB-231 whole cell lysate 5 mg/ml protein, 600 µM, read-out: % left): 0%
- K D [4, 6]: did not yield a binding curve
- K D [nM] ([4]; competitive ITC: 300 μM peptide titrated into 30 μM RbAp48 and 416 μM peptide 40, 20 mM Tris, 150 mM NaCl, pH 7.5, 25°C, duplicate except 8): N.B.

Structure (SMILES): CC(=O)N[C@H]1CSCc2cc3cc(c2)CSC[C@@H](C(=O)N[C@@H](C)C(N)=O)NC(=O)[C@@H]2CCCN2C(=O)[C@H](CCCCN)NC(=O)[C@H](Cc2ccc(O)cc2)NC(=O)[C@@H]2CCCN2C(=O)[C@H](CCCNC(=N)N)NC(=O)[C@H](C)NC(=O)[C@H](C)NC(=O)[C@H](CSC3)NC(=O)[C@H](CCCNC(=N)N)NC(=O)[C@H](CCCCN)NC(=O)[C@H]([C@@H](C)O)NC1=O [Peptide 40] (Ac-CTKRCAARPYKPCA-NH2; linker 1-5-13 via TBMB)
- IC50 [1, 5]: 4320 ± 974 nM
- FP activity in words ([1]; competitive FP assay): decreased several orders of magnitude
- Kd ([4]; weak binding ligand, direct ITC): 15800 nM

Structure (SMILES): CC[C@H](C)[C@H](NC(=O)[C@@H]1CCCN1C(=O)[C@H](CCCCN)NC(=O)[C@H](Cc1ccc(O)cc1)NC(=O)[C@@H]1CCCN1C(=O)[C@H](CCCNC(=N)N)NC(=O)[C@H](CCCNC(=N)N)NC(=O)[C@H](C)NC(=O)[C@H](C)NC(=O)[C@H](CCCNC(=N)N)NC(=O)[C@H](CCCCN)NC(=O)[C@@H](NC(=O)[C@H](CCC(=O)O)NC(=O)[C@H](CO)NC(=O)[C@H](CO)NC(=O)[C@H](CO)NC(=O)[C@H](CC(C)C)NC(=O)[C@H](CC(C)C)NC(=O)[C@H](CCCCN)NC(C)=O)[C@@H](C)O)C(=O)N[C@@H](C)C(=O)N[C@@H](CC(C)C)C(=O)N[C@@H](CCCNC(=N)N)C(=O)N[C@@H](CCC(N)=O)C(=O)N[C@@H](CO)C(=O)N[C@@H](CCC(N)=O)C(=O)N[C@@H](C)C(N)=O [Peptide 2] (Ac-KLLSSSETKRAARRPYKPIALRQSQA-NH2)
- IC50 [1, 5]: 13.4 ± 3 nM
- Kd [4, 6]: 5.18 nM

Now from value to compound:

- IC50 [1, 5]: 13.9 ± 5.6 nM
- enrichment of RbAp48 in pull-down [2]: successfully able to enrich RbAp48
Structure (SMILES): C[C@H](NC(=O)[C@@H]1CSCc2cc3cc(c2)CSC[C@H](NC(=O)[C@H](CCCNC(=N)N)NC(=O)[C@H](CCCCN)NC(=O)[C@H]([C@@H](C)O)NC(=O)[C@@H](NC(=O)COCCOCCOCCN=[N+]=[N-])CSC3)C(=O)N[C@@H](C)C(=O)N[C@@H](CCCNC(=N)N)C(=O)N[C@@H](CCCNC(=N)N)C(=O)N2CCC[C@H]2C(=O)N[C@@H](Cc2ccc(O)cc2)C(=O)N[C@@H](CCCCN)C(=O)N2CCC[C@H]2C(=O)N1)C(N)=O [Peptide 47] (X1-CTKRCARRPYKPCA-NH2; linker 1-5-13 via TBMB; N-terminus assumed)

- IC50 [1, 5]: > 10000 nM
- IC50 ([1]; competitive FP assay, read-out: IC50 / affinity): > 10000 nM
- enrichment of RbAp48 in pull-down [2]: no interaction
Structure (SMILES): C[C@@H]1NC(=O)[C@H](CCCNC(=N)N)NC(=O)[C@@H]2CCCN2C(=O)[C@@H](NC(=O)COCCOCCOCCN=[N+]=[N-])CSCc2cc3cc(c2)CSC[C@@H](C(=O)N[C@@H](CCCCN)C(N)=O)NC(=O)[C@H](CCCNC(=N)N)NC(=O)[C@@H]2CCCN2C(=O)[C@H](C)NC(=O)[C@H]([C@@H](C)O)NC(=O)[C@H](CCCCN)NC(=O)[C@H](Cc2ccc(O)cc2)NC(=O)[C@H](CCCNC(=N)N)NC(=O)[C@H](CSC3)NC1=O [Peptide 48] (X1-CPRACRYKTAPRCK-NH2; linker 1-5-13 via TBMB; N-terminus assumed)
